This passage reports response vs control in vivo results from patent US4689326A, “Process for controlling hyperlipidemia” (Research Corporation, priority 1985, dated 1987).

One experiment relates to serum triglycerides. Put plainly: Hypolipidemic Activity of Compounds 1 and 10-33, Example 13: serum triglycerides. It counts as in vivo, CF1 male mice. To be noted: Mus musculus, 384 h; 20 mg/kg/day ip, day 16, ± SD; read-out: Serum Triglyceride as a function of control, 16 Day. The protocol:
(§1) Compounds 1 and 10-33, identified below in Table 11, were suspended by homogenation in a 1% aqueous solution of carboxymethylcellulose (CMC) such that a 0.2 ml dosage supplied a concentration of 20 mg/kg of the active compounds. The suspending agent, the 1% aqueous solution of CMC, was utilized as a control, applied in the same quantity, 0.2 ml. CF1 male mice, maintained in groups of six, were fed Wayne Blox [trademark] laboratory animal show ad libitum with water. The mice, which each weighed approximately 25 g, were administered the drugs interperitoneally at approximately the same time. On days 9 and 16 approximately […] of blood was taken from each of the animals by tail bleeding. After centrifugation to obtain serum, 25 microliter samples were assayed for total cholesterol utilizing the method of Ness et al. Serum triglyicerides were assayed, using a commercially available BioDynamics/bmc triglyiceride kit, on blood collected on the 16th day. By comparison to standards the milligram percent of cholesterol and milligram per deciliter concentration of triglicerides were calculated. Treated values were expressed as a percent of the level of the control animals plus or minus the standard deviation. The "T" values were obtained using the Student's "t" test.

In another experiment the test system is serum cholesterol. As to the kind of experiment: Hypolipidemic Activity of Compounds 1 and 10-33, Example 13: serum cholesterol. It counts as in vivo, CF1 male mice. To be noted: Mus musculus, 20 mg/kg/day ip. The procedure:
as §1

Setting [1] is: 216 h, day 9, ± SD, read-out: Serum Cholesterol as a function of control, 9 Day.
The mark [2] stands for this setting: 384 h, day 16, ± SD, read-out: Serum Cholesterol as a function of control, 16 Day.

Read-outs that look alike come from different tables or passages of the source.

On to `O=c1c2ccccc2c2ccccc2c(=O)n1Cc1ccccc1` [Compound 15, N-benzyldiphenimide], for which the response vs control in vivo at 20 mg/kg in the experiment with serum triglycerides turned out to be 77 ± 7%; with serum cholesterol (setting [1]), 91 ± 7%; in the experiment with serum cholesterol (setting [2]), 61 ± 6%.
As to `O=c1c2ccccc2c2ccccc2c(=O)n1-c1ccccc1Cl` [Compound 28, N-(2-chloro)-phenyldiphenimide], the response vs control in vivo at 20 mg/kg in the experiment with serum triglycerides turned out to be 65 ± 6%; in the experiment with serum cholesterol (setting [1]), 67 ± 6%; with serum cholesterol (setting [2]) it was 64 ± 5%.
In the same order, the values of `CCCCCn1c(=O)c2ccccc2c2ccccc2c1=O` [Compound 14, N-pentyldiphenimide] are 60 ± 5%, 90 ± 8% and 69 ± 4%.
For `CCCn1c(=O)c2ccccc2c2ccccc2c1=O` [Compound 12, N-propyldiphenimide], in that order: 57 ± 5%, 69 ± 7% and 66 ± 6%.
In the same order, the values of `O=c1c2ccccc2c2ccccc2c(=O)n1-c1cccc(Cl)c1` [Compound 29, N-(3-chloro)-phenyldiphenimide] are 87 ± 7%, 81 ± 8% and 78 ± 8%.
As to `CCCCn1c(=O)c2ccccc2c2ccccc2c1=O` [Compound 13, N-butyldiphenimide], the response vs control in vivo at 20 mg/kg in the experiment with serum triglycerides was determined as 52 ± 5%; with serum cholesterol (setting [1]) it was 78 ± 7%; with serum cholesterol (setting [2]) it was 77 ± 10%.
In the same order, the values of `Cc1cccc(-n2c(=O)c3ccccc3c3ccccc3c2=O)c1` [Compound 23, N-(3-methyl)-phenyldiphenimide] are 63 ± 6%, 78 ± 7% and 76 ± 7%.
In the same order, the values of `CC(=O)CCn1c(=O)c2ccccc2c2ccccc2c1=O` [Compound 16, N-(3-Oxobutyl)-Diphenimide] are 90 ± 4%, 77 ± 5% and 77 ± 7%.
In the same order, the values of `CCc1ccccc1-n1c(=O)c2ccccc2c2ccccc2c1=O` [Compound 25, N-(2-ethyl)phenyldiphenimide] are 84 ± 7%, 82 ± 8% and 73 ± 6%.
For the molecule `COc1ccc(-n2c(=O)c3ccccc3c3ccccc3c2=O)cc1` [Compound 21, N-(4-methoxy)-phenyldiphenimide], the response vs control in vivo at 20 mg/kg with serum triglycerides came out at 74 ± 6%; in the experiment with serum cholesterol (setting [1]) it was 91 ± 7%; with serum cholesterol (setting [2]) it was 84 ± 8%.
For `CC(=O)c1ccc(-n2c(=O)c3ccccc3c3ccccc3c2=O)cc1` [Compound 33, N-(4-acetyl)-diphenimide], in that order: 70 ± 5%, 80 ± 5% and 73 ± 5%.
In the same order, the values of `O=C(O)CCn1c(=O)c2ccccc2c2ccccc2c1=O` [Compound 17, N-(2-Carboxyethyl)-Diphenimide] are 75 ± 10%, 88 ± 11% and 84 ± 6%.
For `O=c1c2ccccc2c2ccccc2c(=O)n1-c1ccc(Cl)cc1` [Compound 30, N-(4-chloro)phenyldiphenimide], in that order: 64 ± 4%, 74 ± 6% and 67 ± 5%.
As for `CCn1c(=O)c2ccccc2c2ccccc2c1=O` [Compound 11, N-ethyldiphenimide], the values for the response vs control in vivo at 20 mg/kg in the experiment with serum triglycerides, in the experiment with serum cholesterol (setting [1]) and with serum cholesterol (setting [2]) were 66 ± 7%, 64 ± 6% and 62 ± 5%, respectively.
On to `Cc1ccc(-n2c(=O)c3ccccc3c3ccccc3c2=O)cc1` [Compound 24, N-(4-methyl)-phenyldiphenimide], for which the response vs control in vivo at 20 mg/kg with serum triglycerides was 60 ± 7%; in the experiment on serum cholesterol (setting [1]), 57 ± 7%; in the experiment with serum cholesterol (setting [2]) it was 52 ± 6%.
